Measurements taken from article PMC8010461, “The acyltransferase PMAT1 malonylates brassinolide glucoside” (The Journal of Biological Chemistry, 2021).

Tests used:
UGT73C5 [1] = target: T1, UGT73C5 (Arabidopsis thaliana, UniProt Q9ZQ94); assay: preparative in vitro glucosylation, product purified by HPLC; format: biochemical; conditions: co-substrate UDP-glucose; glucosylation at C-23
T1 construct: recombinant GST-tagged UGT73C5
T1 sequence (Q9ZQ94 1-495): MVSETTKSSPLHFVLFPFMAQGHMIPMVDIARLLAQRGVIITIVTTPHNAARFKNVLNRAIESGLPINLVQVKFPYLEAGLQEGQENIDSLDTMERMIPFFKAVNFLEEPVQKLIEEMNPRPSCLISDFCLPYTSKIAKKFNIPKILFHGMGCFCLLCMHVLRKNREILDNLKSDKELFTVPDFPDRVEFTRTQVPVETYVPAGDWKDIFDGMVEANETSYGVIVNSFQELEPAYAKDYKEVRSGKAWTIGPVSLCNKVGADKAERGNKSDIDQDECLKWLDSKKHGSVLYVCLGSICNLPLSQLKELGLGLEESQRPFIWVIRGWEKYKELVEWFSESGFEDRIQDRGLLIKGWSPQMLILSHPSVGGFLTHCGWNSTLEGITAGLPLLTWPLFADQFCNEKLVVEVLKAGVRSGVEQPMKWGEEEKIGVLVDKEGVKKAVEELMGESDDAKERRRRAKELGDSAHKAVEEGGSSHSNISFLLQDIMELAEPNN

UGT73C5 [2] = target: T1, UGT73C5; assay: in vitro glucosylation, product confirmed by HR-MS and HR-MS/MS; format: biochemical; conditions: reference compound synthesis; glucosylation at C-23
purified protein = substrate: CC(C)[C@@H](C)[C@@H](O[C@@H]1O[C@H](CO)[C@@H](O)[C@H](O)[C@H]1O)[C@H](O)[C@@H](C)[C@H]1CC[C@H]2[C@@H]3COC(=O)[C@H]4C[C@H](O)[C@H](O)C[C@]4(C)[C@H]3CC[C@]12C; assay: purified protein; format: biochemical, Arabidopsis thaliana; conditions: co-substrate malonyl-CoA 2.5 mM, 50 mM sodium phosphate pH 8.0, 30 °C

CC(C)[C@@H](C)[C@@H](O)[C@H](O)[C@@H](C)[C@H]1CC[C@H]2[C@@H]3COC(=O)[C@H]4C[C@H](O)[C@H](O)C[C@]4(C)[C@H]3CC[C@]12C [24-epiBL]
preparative in vitro glucosylation, product purified by HPLC (UGT73C5 [1]): 24-epiBL (epiBL) as an acceptor were carried out, and the resulting epiBL-23-O-Glc was purified

CC(C)[C@H](C)[C@@H](O)[C@H](O)[C@@H](C)[C@H]1CC[C@H]2[C@@H]3COC(=O)[C@H]4C[C@H](O)[C@H](O)C[C@]4(C)[C@H]3CC[C@]12C [brassinolide]
in vitro glucosylation, product confirmed by HR-MS and HR-MS/MS (UGT73C5 [2]): BL-23-O-MalGlc as analytical reference, which were generated in vitro with recombinant UGT73C5 and PMAT1

B1: PMAT1 (Arabidopsis thaliana) (protein)
chain: MVNEEMESSLKVIDVARVTPSNSDSSESLTLPLTFFDLLWYKLHAVERVIFYKLTDASRPFFDSVIVPNLKTSLSSSLSHYLPLAGKLVWEPLDPKPKIVYTPNDAVSFTVAESNADFSRLTGKEPFPTTELYPLVPELHVSDDSASAVSFQVTLFPNQGFCISVNAHHAVLDGKTTTNFLKSWARTCKNQDSFLPQDLIPVYDRTVIKDPMDLDTKILNAWHRVAKVFTGGKEPENPKSLKLLWSPEIGPDVFRYTLNLTREDIQKLRERLKKESSSSSVSSSPKELRLSTFVIVYSYALTCLIKARGGDPSRPVGYGFAVDCRSLMVPPVPSSYFGNCVSACFKMSLTAETFMSEEGFLAAARMVSDSVEALDENVALKIPEILEGFTTLSPGTQVLSVAGSTRFGVYGLDFGWGRPEKVVVVSIDQGEAISFAESRDGSGGVELGFSLKKHEMDVLVDLLHKGLEN
notes: full ORF, GST fusion (pGEX-4T-2-PMAT1), E. coli BL21, glutathione Sepharose purified; GST tag kept
Km (purified protein; 20 min): 235 µM

B2: At5MAT (Arabidopsis thaliana) (protein)
chain: MVNFNSAVNILEVVQVSPPSSNSLTLPLTYFDLGWLKLHPVDRVLFYHVPELTRSSLISKLKSSLSATLLHYLPLAGRLVWDSIKTKPSIVYSPDDKDAVYLTVAESNGDLSHLSGDEPRPATEFHSLVPELPVSDESARVLAVQVTFFPNQGFSLGVTAHHAVLDGKTTAMFLKAWAHNCKQEQEALPHDLVPSLDRIIVQDPTGLETKLLNRWISASNNKPSLKLFPSKIIGSDILRVTYRLTREDIKKLRERVETESHAKQLRLSTFVITYAYVITCMVKMRGGDPTRFVCVGFASDFRSRLNPPLPPTFFGNCIVGSGDFDVKAEPILEEGEGKGFITAVETLTGWVNGLCPENIEKNMLLPFEAFKRMEPGRQMISVAGSTRLGIYGSDFGWGKPVKVEIVTIDKDASVSLSESGDGSGGVEVGVCLKKDDVERFGSLFSIGLE
notes: full ORF, GST fusion (pGEX-4T-2-At5MAT), E. coli BL21, glutathione Sepharose purified; GST tag kept
Km (purified protein; 240 min): 71 µM
